Columns and labels:
NPY Y5 receptor = target: T1, NPY Y5 receptor (Mus musculus, UniProt O70342); assay: Inhibition of Y5 agonist-induced food intake in mice; assay type: in vivo, C57BL/6J mice; settings: 4 hours after dosing
T1 construct: from tissue; host or cells: brain of living male C57BL/6J mice
T1 sequence (O70342 1-466): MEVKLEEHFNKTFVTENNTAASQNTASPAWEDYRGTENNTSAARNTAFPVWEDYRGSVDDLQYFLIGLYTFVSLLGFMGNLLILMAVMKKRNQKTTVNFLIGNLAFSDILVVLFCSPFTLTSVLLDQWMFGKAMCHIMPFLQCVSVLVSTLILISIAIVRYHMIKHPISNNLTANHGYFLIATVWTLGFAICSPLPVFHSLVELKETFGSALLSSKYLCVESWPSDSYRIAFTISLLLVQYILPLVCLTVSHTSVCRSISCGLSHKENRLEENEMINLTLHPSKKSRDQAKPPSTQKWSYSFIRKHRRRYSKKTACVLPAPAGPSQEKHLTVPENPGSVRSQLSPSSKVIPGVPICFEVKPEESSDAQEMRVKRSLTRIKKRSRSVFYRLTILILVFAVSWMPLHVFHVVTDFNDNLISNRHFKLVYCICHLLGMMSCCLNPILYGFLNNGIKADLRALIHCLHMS
Procedure: Under diethylether anesthesia the skull of male C57BL/6J mice (12-14 week old, 25-30 g) was exposed by making an incision about 1-cm long from external occipital crest to nasal dorsum, and then drilled in the 1-mm lateral position to the left following 1-mm posterior from bregma. After recovery from anesthesia mice were dosed with either 0.5% hydroxypropylmethyl cellulose solution (vehicle, Shin-Etsu Chemical Co., Ltd) or the compounds of this invention suspended in the 0.5% hydroxypropylmethyl cellulose solution. At one hour after the treatment, each animal received saline or a NPY Y5 receptor specific agonist, [cPP^1-7, NPY^19-23, Ala^31, Aib^32, Gln^34]-hPancreatic Polypeptide (0.1 nmol/1.5 μL saline/mouse) through the skull opening using a canula. Residual food was measured at 2 and 4 hours after the treatment. The inhibition ratio of Y5 agonist-induced food intake by the compounds was calculated as follows; inhibition ratio (%)=[1−(food intake (g) by the compound treated and Y5 agonist received mice−food intake (g) by the vehicle treated and saline received mice)/(food intake (g) by the vehicle treated and Y5 agonist received mice−food intake (g) by the vehicle treated and saline received mice)]×100.

mouse NPY Y5 receptor = target: T2, mouse NPY Y5 receptor (Mus musculus, UniProt O70342); assay: Affinity for mouse NPY Y5 receptor ([125I] peptide YY binding, CHO cell membranes); settings: CHO membranes expressing mouse NPY Y5 receptor, [125I] peptide YY 60 pM
T2 construct: expressed in transfected cells
T2 sequence (O70342 1-466): T1 sequence (O70342 1-466)
From the text: cDNA sequence encoding a mouse NPY Y5 receptor (Biochim. Biophys. Acta 1328:83-89, 1997) was cloned in a vector (pME18S, Takebe et al. Mol. Cell. Biol. 8, 466-472). The obtained expression vector was transfected into CHO cells as a host by using Lipofect AMINE reagent (Trademark, Gico BRL Co., Ltd.) according to the instruction manual. The cells that stably express mouse NPY Y5 receptor were obtained.
The membranes prepared from the CHO cells expressing mouse NPY Y5 receptor, the compound of this invention and 30,000 cpm [^125I] peptide YY (60 pM of final concentration: Amersham) were incubated in the assay buffer (20 mM HEPES-Hanks buffer containing 0.1% bovine serum albumin, pH 7.4) at 25° C. for 2 hours, and then the membrane was filtered from the mixture through a glassfilter (GF/C) presoaked with 1% polyethyleneimine. After washing with 50 mM Tris-HCl buffer (pH 7.4), radioactivity retained on the filters was quantified with a gamma counter.
Nonspecific binding was defined as the amount of radioactivity bound to the membranes after incubation in the presence of 200 nM of peptide YY. The 50% inhibitory concentration of the test compound against the specific peptide YY binding (IC50 value) was calculated (Inui, A. et al. Endocrinology 131, 2090-2096 (1992)).

P-gp = target: T3, P-gp (Mus musculus, UniProt P21447); assay: Potential for drug-drug interactions through P-gp in vivo (Kp with/without cyclosporin A); settings: mice, Kp with versus without cyclosporin A (20 mg/kg)
T3 construct: effectively excreted through P-gp from the brain to vessels; from tissue; host or cells: brain / blood-brain barrier of living C57BL/6J mice
Procedure: To examine the potential for drug-drug interactions through P-gp in vivo, the Kp values of compounds of this invention with (KpCSA) or without (KpCont.) cyclosporin A (20 mg/kg), a P-gp inhibitor, were calculated. The KpCSA value of Compound (I-72) was 1.14, and the calculated KpCSA KpCont. ratio was 0.9.
On the other hand the potential for drug-drug interactions through P-pg of amide compound B which has similar structure of Compound (1-72) was also examined in mice. The KpCont. and KpCSA were 0.04 and 0.84, respectively.

[1] = Suppression of body weight gain in high-fat diet-induced obese mice; assay type: in vivo, C57BL/6J mice; settings: 6 mg/kg b.i.d. for 3 weeks, versus vehicle
Procedure: Prior to administration of the compounds of this invention, male C57BL/6J mice were given a high-fat diet to induce obese. The high-fat diet-induced obese mice (13-14 week old, body weight 28-33 g) were dosed with 0.5% hydroxypropylmethyl cellulose solution (vehicle, Shin-Etsu Chemical Co., Ltd) or the compounds of this invention suspended in the 0.5% hydroxypropylmethyl cellulose solution twice a day (b.i.d.) for 3 weeks with the same diet. The changes in body weight were monitored daily.

[2] = rows without asterisk (6 mg/kg per text)

T3 sequence (P21447 whole entry): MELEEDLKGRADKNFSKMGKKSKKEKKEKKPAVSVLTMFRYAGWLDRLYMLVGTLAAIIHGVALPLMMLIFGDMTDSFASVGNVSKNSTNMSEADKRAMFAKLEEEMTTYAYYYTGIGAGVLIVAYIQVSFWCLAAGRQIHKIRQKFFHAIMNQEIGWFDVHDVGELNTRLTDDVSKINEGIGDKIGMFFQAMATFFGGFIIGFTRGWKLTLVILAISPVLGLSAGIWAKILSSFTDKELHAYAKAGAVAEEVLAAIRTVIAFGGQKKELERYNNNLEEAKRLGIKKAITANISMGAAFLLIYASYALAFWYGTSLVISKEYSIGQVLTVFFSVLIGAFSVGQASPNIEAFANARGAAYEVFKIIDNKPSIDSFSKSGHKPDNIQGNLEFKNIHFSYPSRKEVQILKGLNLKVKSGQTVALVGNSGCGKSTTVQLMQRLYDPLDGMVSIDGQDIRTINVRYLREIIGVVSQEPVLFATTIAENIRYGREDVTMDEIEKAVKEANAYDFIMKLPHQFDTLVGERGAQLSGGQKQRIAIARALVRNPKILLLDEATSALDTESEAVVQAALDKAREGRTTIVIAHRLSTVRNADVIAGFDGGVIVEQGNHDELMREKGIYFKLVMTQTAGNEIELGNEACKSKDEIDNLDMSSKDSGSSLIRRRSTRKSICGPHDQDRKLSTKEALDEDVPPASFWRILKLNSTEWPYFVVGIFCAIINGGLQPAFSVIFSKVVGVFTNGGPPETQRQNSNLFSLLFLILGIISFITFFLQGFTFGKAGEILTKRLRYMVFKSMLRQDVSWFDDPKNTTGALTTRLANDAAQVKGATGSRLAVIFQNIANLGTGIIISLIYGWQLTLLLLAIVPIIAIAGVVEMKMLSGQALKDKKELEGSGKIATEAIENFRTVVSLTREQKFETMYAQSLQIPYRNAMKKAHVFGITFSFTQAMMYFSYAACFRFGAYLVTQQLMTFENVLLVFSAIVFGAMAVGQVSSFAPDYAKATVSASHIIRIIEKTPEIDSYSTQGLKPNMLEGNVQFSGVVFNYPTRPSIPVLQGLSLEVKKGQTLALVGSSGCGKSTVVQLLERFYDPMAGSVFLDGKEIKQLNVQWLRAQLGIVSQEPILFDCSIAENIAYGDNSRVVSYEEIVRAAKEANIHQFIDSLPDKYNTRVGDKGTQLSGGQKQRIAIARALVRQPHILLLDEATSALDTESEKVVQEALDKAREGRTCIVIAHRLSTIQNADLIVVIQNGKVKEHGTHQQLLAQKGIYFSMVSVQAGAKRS

SMILES	Inhibition ratio of Y5 agonist-induced food intake (NPY Y5 receptor; [2]) [%]	IC50 (mouse NPY Y5 receptor) [nM]	other results
CC(C)(C)S(=O)(=O)NC[C@H]1CC[C@H](Nc2nc3cc(F)ccc3o2)CC1 [Ij-158]	70.5	0.85	–
CCCn1c(=O)oc2cc(NC[C@H]3CC[C@H](NS(=O)(=O)CC)CC3)ccc21 [Ii-16]	–	1.2	–
CC(C)S(=O)(=O)NC[C@H]1CC[C@H](Nc2ccc(C(F)(F)F)cn2)CC1 [Ij-1]	–	0.7	–
C[C@@H]1CN(c2ccc(NC(=O)[C@H]3CC[C@H](NS(=O)(=O)C(C)(C)C)CC3)cc2)C[C@H](C)O1 [B, reference compound]	–	–	KpCSA/KpCont. ratio (P-gp): 20.5
CC(C)S(=O)(=O)NC[C@H]1CC[C@H](Nc2nc3cc(F)ccc3o2)CC1 [Ij-155]	–	0.88	Inhibition ratio of Y5 agonist-induced food intake (NPY Y5 receptor; *Dose: 1.5 mg/kg): 56.1%*
CC(C)S(=O)(=O)NC[C@H]1CC[C@H](Nc2ccn(-c3ccccc3Cl)n2)CC1 [Ij-157]	–	0.16	–
CC(C)(C)S(=O)(=O)NC[C@H]1CC[C@H](Nc2ccn(-c3ccccc3F)n2)CC1 [Ij-110]	90.3	–	–
CCS(=O)(=O)N[C@H]1CC[C@H](CNc2ccc(S(=O)(=O)c3ccc(F)cc3)cc2)CC1 [Ii-34]	–	11	–
CC(C)S(=O)(=O)NC[C@H]1CC[C@H](Nc2ccc(OC3CCCC3)nn2)CC1 [Ij-52]	–	0.99	–
CCS(=O)(=O)NC[C@H]1CC[C@H](Nc2ccc(-c3ccccc3)cn2)CC1 [Ij-4]	88.2	–	–
CC(C)S(=O)(=O)NC[C@H]1CC[C@H](Nc2nc3cc(F)ccc3s2)CC1 [Ij-151]	–	0.12	Inhibition ratio of Y5 agonist-induced food intake (NPY Y5 receptor; *Dose: 1.5 mg/kg): 78.4%*
CC(C)(C)S(=O)(=O)NC[C@H]1CC[C@H](Nc2nc3ccc(C(F)(F)F)cc3s2)CC1 [Ij-66]	–	0.39	–
CC(C)S(=O)(=O)N[C@H]1CC[C@H](CNc2cc(F)cc(N3CCOCC3)c2)CC1 [Ii-55]	64.3	–	–
CCC(C)S(=O)(=O)NC[C@H]1CC[C@H](Nc2nc3cc(F)ccc3o2)CC1 (stereo partly shown) [Ij-160]	–	0.55	Inhibition ratio of Y5 agonist-induced food intake (NPY Y5 receptor; *Dose: 1.5 mg/kg): 36.6%*
CC(C)S(=O)(=O)NC[C@H]1CC[C@H](Nc2nc3ccc(F)cc3s2)CC1 [Ij-152]	–	0.35	Inhibition ratio of Y5 agonist-induced food intake (NPY Y5 receptor; *Dose: 1.5 mg/kg): 62.6%*
CC(C)S(=O)(=O)NC[C@H]1CC[C@H](Nc2nc3ccc(F)cc3o2)CC1 [Ij-156]	–	0.68	Inhibition ratio of Y5 agonist-induced food intake (NPY Y5 receptor; **Dose: 12.5 mg/kg): 90.4%**
CCC(C)S(=O)(=O)NC[C@H]1CC[C@H](Nc2nc3ccc(F)cc3o2)CC1 (stereo partly shown) [Ij-161]	–	0.69	Inhibition ratio of Y5 agonist-induced food intake (NPY Y5 receptor; *Dose: 1.5 mg/kg): 15.8%*
CC(C)(C)S(=O)(=O)NC[C@H]1CC[C@H](Nc2ccc3ccccc3n2)CC1 [Ij-59]	–	2.5	–
CC(C)S(=O)(=O)NC[C@H]1CC[C@H](Nc2nc3cc(Cl)ccc3s2)CC1 [Ij-154]	81.3	0.17	–
CC1CC(C)CN(c2cccc(NC[C@H]3CC[C@H](NS(=O)(=O)C(C)(C)C)CC3)c2)C1 (stereo partly shown) [Ii-1]	–	0.1	–
CCS(=O)(=O)NC[C@H]1CC[C@H](Nc2nc3ccccc3s2)CC1 [Ij-149]	62.6	0.92	–
CC(C)(C)S(=O)(=O)NC[C@H]1CC[C@H](Nc2nc3ccc(F)cc3o2)CC1 [Ij-159]	83.2	0.6	–
C[C@@H]1CN(c2ccc(NC[C@H]3CC[C@H](NS(=O)(=O)C(C)(C)C)CC3)cc2)C[C@H](C)O1 [Compound I-72]	–	–	KpCSA/KpCont. ratio (P-gp): 0.9
Cn1c(=O)oc2cc(NC[C@H]3CC[C@H](NS(=O)(=O)C(C)(C)C)CC3)cc(F)c21 [Ii-45]	76.2	–	Body weight gain [1]: suppresses Body Weight Gain
CCS(=O)(=O)NC[C@H]1CC[C@H](Nc2ccn(-c3ccccc3F)n2)CC1 [Ij-112]	–	–	Body weight gain [1]: suppresses Body Weight Gain
CCS(=O)(=O)NC[C@H]1CC[C@H](Nc2nc3ccccc3o2)CC1 [Ij-150]	25.3	4.66	–
CC(C)S(=O)(=O)NC[C@H]1CC[C@H](Nc2nc3cccc(F)c3s2)CC1 [Ij-153]	73.0	0.12	–

From patent US8227618B2, “Amine-derivatives having NPY Y5 receptor antagonistic activity and the uses thereof” (Shionogi & Co., Ltd., priority 2009, dated 2012)
